Source: US20130089591A1, “Compositions” (Givaudan SA, priority 2010, published 2013)

Tests used:
[1] = Aggregation of polyurea capsules, Method 5.6; type: physicochemical; design: key: ∘: no aggregation of the capsules; +: aggregation of few capsules together only visible under microscopy; ++: aggregates of mm size; +++: important aggregation; ++++: aggregation is such that a cake is obtained; conditions: polyurea Method 5.6, phase A of Table 1; for Encapsulation, No precursor (scale of aggregation): free aldehyde as phase B; for Encapsulation, With precursor (scale of aggregation): precursor (Method 1.1) as phase B
Method: An oil phase was prepared when Desmodur VL R20 (Bayer) was added in perfume oil at a level of 2.5%.
An aqueous phase (Solution S1) was prepared when Mowiol 4-88 (Kururay) was added in water, at a level of 0.1%.
An aqueous phase (Solution S2) was prepared when diethylentriamine (Merck) was added in water, at a level of 2%.
100 g of oil phase was mixed with 250 g of solution S1, to form an oil-in-water emulsion, in a 500 mL vessel equipped with a propeller operating at 1000 rpm.
After 10 min of stirring, 50 g of solution S2 was added.
The slurry was stirred for 4 h at room temperature.
The Method 5.6 of Example 5 was applied to encapsulate different perfume oils described as phase A (non aldehyde raw materials) and phase B (aldehyde raw materials).
The composition of Phase A is described in Table 1. Phase B is an aldehyde perfume molecule used as such or as its precursor form prepared according to Method 1.1.
According to the aspect of the slurry a scale of aggregation has been defined as follow: […]
(§1) ∘ no aggregation of the capsules + aggregation of few capsules together only visible under microscopy ++ aggregates of mm size +++ important aggregation ++++ aggregation is such that a cake is obtained

[2] = Water solubility of the aldehyde
[3] = Aggregation of polyurea capsules, Method 5.1; type: physicochemical; conditions: for Encapsulation (aggregation): free aldehyde at 5% in IPM
Method: An oil phase was prepared by adding Desmodur W (Isocyanate from Bayer) to a perfume oil at a level of 16.6%.
An aqueous phase (solution S1) was prepared by adding Luviskol k90 (BASF) to water, at a level of 4.5%. The pH of the solution was adjusted to 11.5 by addition of NaOH at 10%.
An aqueous phase (Solution S2) was prepared when Lupasol PR8515 (BASF) was added to water, at a level of 10%.
300 g of the oil phase was mixed with 500 g of solution S1, to form an oil-in-water emulsion, in a 1 L reactor equipped with a MIG stirrer operating at 1000 rpm.
After 30 minutes of mixing, 200 g of solution S2 was added over a period of 1 minute.
After 30 minutes, the slurry was heated up to 70° C. (1 H), then kept for 2 H at 70° C., then heated to 80° C. and kept for 1 H at 80° C., then heated to 85° C. and kept for 1 H at 85° C., then cooled to 70° C. and kept for 1 H at 70° C. before final cooling at 25° C.
The Method 5.1 of Example 5 was applied to encapsulate different perfume oils described as phase A (non aldehyde raw materials) and phase B (aldehyde raw materials).
In the following trials, phase A was IPM and phase B was aldehyde perfume molecules. Phase B was added at a level of 5% in phase A.
Phase B contains aldehyde C11 iso or the corresponding precursor prepared according to Method 1.1.
Phase B was added at a level of 5% in phase A.

[4] = Aggregation of polyurea capsules, Method 5.5; type: physicochemical; design: key: ∘: no aggregation of the capsules; +: aggregation of few capsules together only visible under microscopy; ++: aggregates of mm size; +++: important aggregation; ++++: aggregation is such that a cake is obtained; conditions: polyurea Method 5.5, phase A of Table 1; for Encapsulation, No precursor (scale of aggregation): free aldehyde as phase B; for Encapsulation, With precursor (scale of aggregation): precursor (Method 1.1) as phase B
Method: An oil phase was prepared when Desmodur W and Desmodur N3300 (Bayer) were added in perfume oil at a level of 2.2% and 13% respectively.
An aqueous phase (Solution S1) was prepared when Gantrez AN119 (ISP) was added to water, at a level of 1.6%. The solution was heated at 70° C. for 10 min to disperse the polymer.
An aqueous phase (Solution S2) was prepared when Ethylene diamine (Merck) was added to water, at a level of 7.5%.
30 g of the oil phase was mixed with 80 g of solution S1, to form an oil-in-water emulsion, in a 250 mL vessel equipped with a propeller operating at 1000 rpm.
After 10 min of stirring, 20 g of solution S2 was added.
The slurry was stirred for 30 min at room temperature, then heated to 60° C. and stirred for 3 H at 60° C. before cooling.
The Method 5.5 of Example 5 was applied to encapsulate different perfume oils described as phase A (non aldehyde raw materials) and phase B (aldehyde raw materials).
The composition of Phase A was described in Table 1 above. Phase B is an aldehyde perfume molecule used as such or as its precursor form prepared according to Method 1.1.
According to the aspect of the slurry a scale of aggregation was defined as follow: […]
as §1
Phase B was added at a level of 20% of aldehyde in phase A.

[5] = Aggregation of polyamide capsules (Example 2 method); type: physicochemical; design: key to Encapsulation, No precursor (scale of aggregation) / Encapsulation, With precursor (scale of aggregation): ∘: no aggregation of the capsules; +: aggregation of few capsules together only visible under microscopy; ++: aggregates of mm size; +++: important aggregation; ++++: aggregation is such that a cake is obtained; conditions: for Encapsulation, No precursor (scale of aggregation): free aldehyde as phase B at 5% in phase A of Table 1; for Encapsulation, With precursor (scale of aggregation): precursor of the aldehyde (Method 1.1) as phase B at 5% in phase A of Table 1
Method: An oil phase was prepared by dissolving isophtahaloyl dichloride (Fluka) in oil (oil composition specified in the examples below) at a level of 10%
An aqueous solution (Solution S1) was prepared by dissolving a polyvinyl alcohol Mowiol 4-88 (Kuru ray) in water at a level of 1%.
An aqueous solution (Solution S2) was prepared when triethylentetraamine (Hunstman) was diluted in water at a level of 3%.
100 g of the oil phase was mixed with 450 g of solution S1 to form an oil-in-water emulsion in a 1 L reactor equipped with a MIG stirrer operating at 1000 rpm. After 5 minutes of mixing, 450 g of solution S2 was slowly added. The resultant slurry of polyamide capsules was kept under stirring for 2 H.
Two capsule populations were formed. A first encapsulating IPM (isopropyl myristate) and a second containing IPM+5% of ethyl vaniline. The capsules were made according to the method of Example 2.
The methodology of Example 2 was applied to encapsulate different perfume oils described as phase A (non aldehyde raw materials) and phase B (aldehyde raw materials).
The phase B was added at 5% to the phase A prior to encapsulation. Different compositions of phase B have been used corresponding each time to a single aldehyde perfume molecule or to its precursor formed according to the methodology of Method 1.1, above.
According to the condition of the slurry a scale of aggregation has been defined as follows: […]
as §1

## CC(CC=O)CC(C)(C)C (stereo not drawn) [Ald C9 isononylic]
[1]
  Encapsulation, No precursor (scale of aggregation): +++
  Encapsulation, With precursor (scale of aggregation): ∘
[2]; Table of Example 13
  Water solubility: 160 ppm

## CCCCCCCCCC=O [Aldehyde C10]
[1]
  Encapsulation, No precursor (scale of aggregation): ++++
  Encapsulation, With precursor (scale of aggregation): ∘
[2]; Table 2
  Water solubility: 61 ppm
[2]; Table 3
  Water solubility: 61 ppm
[2]; Table of Example 11
  Water solubility: 61 ppm
[2]; Table of Example 13
  Water solubility: 61 ppm
[3]
  Encapsulation (aggregation): Aggregation
[4]
  Encapsulation, No precursor (scale of aggregation): +++
  Encapsulation, With precursor (scale of aggregation): ∘
[5]
  Encapsulation, No precursor (scale of aggregation): +++
  Encapsulation, With precursor (scale of aggregation): +

## CCCCCCCCCCCC=O [Aldehyde C12 laurique]
[1]
  Encapsulation, No precursor (scale of aggregation): ++++
  Encapsulation, With precursor (scale of aggregation): ∘
[3]
  Encapsulation (aggregation): Aggregation
[4]
  Encapsulation, No precursor (scale of aggregation): ++
  Encapsulation, With precursor (scale of aggregation): ∘
[5]
  Encapsulation, No precursor (scale of aggregation): +++
  Encapsulation, With precursor (scale of aggregation): ∘

## CCCCCCCCCC(C)C=O (stereo not drawn) [Aldehyde C12 mna]
[1]
  Encapsulation, No precursor (scale of aggregation): ∘
  Encapsulation, With precursor (scale of aggregation): ∘
[4]
  Encapsulation, No precursor (scale of aggregation): ∘
  Encapsulation, With precursor (scale of aggregation): ∘
[5]
  Encapsulation, No precursor (scale of aggregation): ++
  Encapsulation, With precursor (scale of aggregation): ∘

## COc1ccc(C=O)cc1 [Aubepine para cresol]
[2]; Table 2
  Water solubility: 6 ppm
[5]
  Encapsulation, No precursor (scale of aggregation): ++
  Encapsulation, With precursor (scale of aggregation): ∘

## CCCCCC=O [Capronaldehyde (hexanal)]
[1]
  Encapsulation, No precursor (scale of aggregation): ++++
  Encapsulation, With precursor (scale of aggregation): ∘

## O=C/C=C/c1ccccc1 [Cinnamic ald]
[1]
  Encapsulation, No precursor (scale of aggregation): +
  Encapsulation, With precursor (scale of aggregation): ∘
[2]; Table of Example 13
  Water solubility: 1900 ppm

## CC(C)c1ccc(C=O)cc1 [Cuminic ald]
[1]
  Encapsulation, No precursor (scale of aggregation): ++
  Encapsulation, With precursor (scale of aggregation): ∘
[2]; Table of Example 13
  Water solubility: 280 ppm

## CC(C)(O)CCCC1=CCC(C=O)CC1 (stereo not drawn) [Cyclohexal]
[1]
  Encapsulation, No precursor (scale of aggregation): ∘
  Encapsulation, With precursor (scale of aggregation): ∘

## CC1(C)CCCC2=C1CC(C=O)CC2 (stereo not drawn) [Cyclomyral]
[1]
  Encapsulation, No precursor (scale of aggregation): ∘
  Encapsulation, With precursor (scale of aggregation): ∘

## CC(C)c1cccc(C(C)CC=O)c1 (stereo not drawn) [Florhydral]
[2]; Table 3
  Water solubility: 51 ppm
[3]
  Encapsulation (aggregation): Aggregation

## CCCCCC/C(C=O)=C\c1ccccc1 [Hexyl cinnamic ald]
[1]
  Encapsulation, No precursor (scale of aggregation): +
  Encapsulation, With precursor (scale of aggregation): ∘
[2]; Table of Example 13
  Water solubility: 2 ppm

## CC(C=O)c1ccccc1 (stereo not drawn) [Hydratropic ald]
[1]
  Encapsulation, No precursor (scale of aggregation): +
  Encapsulation, With precursor (scale of aggregation): +
[2]; Table of Example 13
  Water solubility: 650 ppm

## CC(CC=O)CCCC(C)(C)O (stereo not drawn) [Hydroxycitronellal]
[1]
  Encapsulation, No precursor (scale of aggregation): +++
  Encapsulation, With precursor (scale of aggregation): ∘
[2]; Table 3
  Water solubility: 1800 ppm
[2]; Table of Example 11
  Water solubility: 1800 ppm
[2]; Table of Example 13
  Water solubility: 1800 ppm
[3]
  Encapsulation (aggregation): Aggregation
[4]
  Encapsulation, No precursor (scale of aggregation): ++++
  Encapsulation, With precursor (scale of aggregation): ∘

## CC(CC=O)CCc1ccccc1 (stereo not drawn) [Mefranal]
[1]
  Encapsulation, No precursor (scale of aggregation): ∘
  Encapsulation, With precursor (scale of aggregation): ∘
[2]; Table of Example 13
  Water solubility: 100 ppm

## CC(C)=CCCC(C)C=O (stereo not drawn) [Melonal, 2,6-dimethyl-5-heptenal]
[1]
  Encapsulation, No precursor (scale of aggregation): ++++
  Encapsulation, With precursor (scale of aggregation): ∘
[2]; Table of Example 13
  Water solubility: 344 ppm

## C/C(C=O)=C\c1ccccc1 [Methyl cinnamic ald]
[1]
  Encapsulation, No precursor (scale of aggregation): ∘
  Encapsulation, With precursor (scale of aggregation): ∘
[2]; Table of Example 13
  Water solubility: 580 ppm

## CC1(C)C2CC=C(CCC=O)C1C2 (stereo not drawn) [Pino acetaldehyde]
[1]
  Encapsulation, No precursor (scale of aggregation): ++++
  Encapsulation, With precursor (scale of aggregation): ∘
[2]; Table of Example 13
  Water solubility: 86 ppm

## COC1CC2CC1C1CC(C=O)CC21 (stereo not drawn) [Scentenal]
[1]
  Encapsulation, No precursor (scale of aggregation): ++
  Encapsulation, With precursor (scale of aggregation): ∘

## CCOc1cc(C=O)ccc1O [ethyl vaniline]
[5]; IPM + 5% aldehyde
  Aggregation, microscopic examination: significant aggregation

## Aldehyde iso C11
[2]; Table 2
  Water solubility: 30 ppm
[3]; phase B at 5% in phase A of Table 4, listed as Aldehyde C11 iso
  Slurry aspect: Cake
[3]; phase B at 5% in phase A of Table 4, listed as aldehyde C11 iso
  Slurry aspect: aggregate
[5]
  Encapsulation, No precursor (scale of aggregation): +++
  Encapsulation, With precursor (scale of aggregation): +
